Assay results published in PubChem BioAssay (NCI).
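Protocol summary: plate cells (96-well), add compound at 5 concentrations, incubate 48 h, interpolate endpoints linearly. GI50 marks 50% less growth. Definition used: TGI = concentration required for complete inhibition of growth.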

Assays:
Assay in all cases: DTP human tumour cell line panel, 48 h
EKVX NSCLC = system: EKVX NSCLC
HCT-116 colon = system: HCT-116 colon
HS 578T breast = system: HS 578T breast
HT29 colon = system: HT29 colon
M14 melanoma = system: M14 melanoma
NCI-H522 lung = system: NCI-H522 lung
OVCAR-5 ovarian = system: OVCAR-5 ovarian
OVCAR-8 ovarian = system: OVCAR-8 ovarian
PC-3 prostate = system: PC-3 prostate
RPMI-8226 leukemia = system: RPMI-8226 leukemia
SK-MEL-2 melanoma = system: SK-MEL-2 melanoma
SK-OV-3 ovarian = system: SK-OV-3 ovarian
SNB-75 CNS = system: SNB-75 CNS
T-47D breast = system: T-47D breast

Row | SMILES | TGI (EKVX NSCLC) | TGI (HCT-116 colon) | TGI (HS 578T breast) | TGI (HT29 colon) | TGI (M14 melanoma) | TGI (NCI-H522 lung) | TGI (OVCAR-5 ovarian) | TGI (OVCAR-8 ovarian) | TGI (PC-3 prostate) | TGI (RPMI-8226 leukemia) | TGI (SK-MEL-2 melanoma) | TGI (SK-OV-3 ovarian) | TGI (SNB-75 CNS) | TGI (T-47D breast) | GI50 (EKVX NSCLC) | GI50 (HS 578T breast) | GI50 (HT29 colon) | GI50 (NCI-H522 lung) | GI50 (OVCAR-8 ovarian) | GI50 (SNB-75 CNS)
1 | CC1OC(OC2C[C@](O)(C(=O)CBr)Cc3c(O)c4c(c(O)c32)C(=O)c2ccccc2C4=O)C(F)C(O)C1O (stereo partly drawn) | > 100 µM | > 68 µM | > 73.4 µM | > 56.1 µM | 26.1 µM | 23.5 µM | > 59.7 µM | > 100 µM | > 68.2 µM | 17.7 µM | 79.5 µM | > 100 µM | 56.2 µM | > 82 µM | – | – | – | – | – | –
2 | CSS(C)(=O)=O | 66.2 µM | > 100 µM | > 100 µM | > 100 µM | 74.7 µM | 37.1 µM | 49.1 µM | 68.8 µM | 48.7 µM | 5.36 µM | 60.2 µM | – | 94.1 µM | 57.2 µM | – | – | – | – | – | –
3 | COc1ccc(-c2c3c(nc4[nH]c(=S)[nH]c(=S)c24)CCCC3)cc1OC | 76.9 µM | > 100 µM | 54.4 µM | > 100 µM | > 100 µM | – | > 100 µM | 74.6 µM | 79 µM | > 100 µM | – | > 100 µM | 51.2 µM | > 100 µM | – | – | – | – | – | –
4 | CC(=O)OCc1nnn2c1CCC2 | > 100 µM | > 100 µM | – | > 100 µM | > 100 µM | > 100 µM | > 100 µM | > 100 µM | – | – | > 100 µM | > 100 µM | > 100 µM | – | – | – | – | – | – | –
5 | COc1ccc(OCC(C)(C)O)cc1 | > 100 µM | > 100 µM | – | > 100 µM | – | – | > 100 µM | > 100 µM | – | > 100 µM | > 100 µM | > 100 µM | > 86.9 µM | – | – | – | – | – | – | –
6 | CCCCCCC(=O)c1ccc2ccccc2c1O | > 100 µM | > 100 µM | > 100 µM | > 100 µM | > 100 µM | – | – | > 100 µM | > 100 µM | > 100 µM | 67.5 µM | > 100 µM | > 100 µM | > 100 µM | – | – | – | – | – | –
7 | COc1c2occc2cc2ccc(=O)oc12 | > 100 µM | > 100 µM | > 100 µM | > 100 µM | > 100 µM | > 100 µM | > 100 µM | > 100 µM | > 100 µM | > 100 µM | > 100 µM | > 100 µM | > 100 µM | > 100 µM | 96.9 µM | > 100 µM | > 100 µM | > 100 µM | > 100 µM | 55.1 µM
8 | N[C@@H](Cc1ccc2oc3cc(=O)c4ccccc4c-3nc2c1)C(=O)O | > 100 µM | > 100 µM | > 100 µM | 96.8 µM | 40.9 µM | > 100 µM | > 100 µM | > 100 µM | – | > 100 µM | – | > 100 µM | > 100 µM | > 100 µM | – | – | – | – | – | –
9 | C=CCOC1OC(CS(=O)(=O)O)C(OC(C)=O)C(OC(C)=O)C1OC(C)=O (stereo not drawn) | – | > 100 µM | > 100 µM | > 100 µM | > 100 µM | – | > 100 µM | > 100 µM | > 100 µM | > 100 µM | > 100 µM | > 100 µM | > 100 µM | > 100 µM | – | – | – | – | – | –
10 | CCOC(=O)/C=C/c1c[nH]c(=O)[nH]c1=O | > 75 µM | > 75 µM | – | > 75 µM | – | > 75 µM | > 75 µM | > 75 µM | – | > 57 µM | > 75 µM | > 61.2 µM | > 75 µM | – | – | – | – | – | – | –
11 | c1ccc(N2N=C3N(c4ccccc4)C2N3c2ccccc2)cc1 | > 100 µM | > 100 µM | > 100 µM | > 100 µM | 47.6 µM | 56.1 µM | > 100 µM | > 100 µM | > 100 µM | 48.7 µM | 73 µM | > 100 µM | 64.5 µM | > 100 µM | – | – | – | – | – | –
